Source: article PMC5154303, “Flavonol and imidazole derivatives block HPV16 E6 activities and reactivate apoptotic pathways in HPV^+ cells” (Cell Death & Disease, 2016)

What was measured:
Assay type in all cases: cell-based, human
UMSCC47 = experiment: TRAIL-induced cell death in HPV+ HNSCC line UMSCC47 (MTT); details: HPV+ #47, 40 μM compound 4 h, 50 ng/ml TRAIL + cycloheximide
Description: (§1) Figure 7 Myricetin and spinacine (5) can re-sensitize HPV^+, but not HPV^−, head and neck cancer cell lines to treatment with TRAIL. (a) Both HPV^− and HPV^+ HN cancer cell lines display resistance to TRAIL treatment. (b) HPV^− (UMSCC 29 and SCC 84) and (c) HPV^+ (UMSCC 47, UPCI-SCC90-UP-Clone 35, and UM-SCC47-TC-Clone 3) head and neck cancer cell lines (2 × 10^4 cells per well) were seeded into 96-well plates and allowed to incubate overnight, and then cells were pretreated with myricetin (0–200 μM) or spinacine (0–100 μM) for 4 h. […] Cell viability was measured by the MTT assay, and the viability of cells untreated with small molecules was set at 100%. Experiments were performed in triplicate, and error bars indicate the S.D.
(§2) The extracellular domain of human TRAIL was cloned into a pTriEx expression plasmid containing N-terminal Hisx6 tag. His-TRAIL was expressed in the E. coli BL-21 pLys strain and purified as previously described. Doxorubicin and cisplatin were purchased from Sigma. His-TRAIL, doxorubicin, and cisplatin were diluted in PBS to the desired concentration before using. […] All experiments were repeated at least three times (three biological replicates, carried out on different days), with each experimental group measured in triplicate within each of these individual experiments. […]

SiHa cells = experiment: TRAIL-induced apoptosis in SiHa cells (MTT); details: for viability at 125 µM / EC50: Homo sapiens; for viability at 125 µM: SiHa, 125 μM compound, TRAIL 100 ng/ml + cycloheximide 5 μg/ml, cells without small molecule = 100%, read-out: viability of SiHa cells in the presence of TRAIL; for EC50 / increase in cell death in the presence versus absence of TRAIL: SiHa cells; for EC50: compound 4 h prior to TRAIL 100 ng/ml + cycloheximide 5 μg/ml, overnight, MTT; for increase in cell death in the presence versus absence of TRAIL: from the EC50 values of Table 2
Description: Figure 3 (a) HPV^+ SiHa cells are resistant to TRAIL-induced apoptosis as compared with the human osteosarcoma cell line U2OS. Cells (2 × 10^4 cells per well) were seeded into a 96-well plate, allowed to incubate overnight, and then treated with the indicated concentration of TRAIL in the presence of cycloheximide (5 μg/ml). The viability of cells was measured after overnight incubation using the MTT assay; the viability of cells untreated with TRAIL was set at 100% for each group. (b) The indicated concentrations of three small molecules were added to SiHa cells, and an MTT assay was preformed after overnight incubation. The viability of cells untreated with small molecules was set as 100%. (c) The indicated concentrations of myricetin or spinacine were added 4 h prior to TRAIL (100 ng/ml) in the presence of cycloheximide (5 μg/ml) and incubated at 37 °C overnight. The viability of cells untreated with small molecules was set at 100%. (d and e) SiHa cells (2 × 10^4 cells per well) were seeded into a 96-well plate and allowed to incubate overnight. In all, 100 μM of myricetin and 50 μM of spinacine were added 4 h prior to either (d) doxorubicin or (e) cisplatin. Cell viability was measured after overnight incubation using the MTT assay, and the viability of cells untreated with either myricetin or spinacine was set at 100%. Experiments were performed in triplicate, and error bars indicate the S.D.
Figure 5 Myricetin and spinacine (5) can re-sensitize HPV^+, but not HPV^−, cells to treatment with TRAIL. SiHa (2 × 10^4 cells per well) and C33A cells (1 × 10^4 cells per well) were seeded into a 96-well plate and allowed to incubate overnight, and then cells were pretreated in the presence or absence of (a) myricetin (100 μM) or (b) spinacine (50 μM) for 4 h. The indicated concentration of TRAIL along with cycloheximide (5 μg/ml) was added, and the cells were allowed to incubate overnight. Cell viability was measured by MTT assay, and the viability of cells untreated with TRAIL was set at 100%. Experiments were performed in triplicate, and error bars indicate the S.D.
The extracellular domain of human TRAIL was cloned into a pTriEx expression plasmid containing N-terminal Hisx6 tag. His-TRAIL was expressed in the E. coli BL-21 pLys strain and purified as previously described. Doxorubicin and cisplatin were purchased from Sigma. His-TRAIL, doxorubicin, and cisplatin were diluted in PBS to the desired concentration before using. To measure cell survival following treatment with TRAIL, cisplatin and doxorubicin, SiHa (2 × 10^4/well), C33A (1 × 10^4/well), and HNSCC cells (2 × 10^4/well) were seeded into 96-well plates and allowed to adhere overnight. Small molecules at the desired concentration were added and incubated at 37 °C for 4 h. As indicated, TRAIL, cisplatin, or doxorubicin was then added. The TRAIL treatment group contained cycloheximide (5 μg/ml) to inhibit de novo protein synthesis, and the cells were incubated for 16 h prior to measuring cell viability by the MTT assay preformed as described previously.[38] All experiments were repeated at least three times (three biological replicates, carried out on different days), with each experimental group measured in triplicate within each of these individual experiments. Data presented are from a representative experiment.

UPCI-SCC90-UP-Clone 35 = experiment: TRAIL-induced cell death in HPV+ HNSCC line UPCI-SCC90-UP-Clone 35 (MTT); details: HPV+ #90, 40 μM compound 4 h, 50 ng/ml TRAIL + cycloheximide
Description: as §1, §2

caspase 8 = experiment: Caspase 8 level in SiHa cells by immunoblot; details: 24 h
Description: Figure 6 Treatment with myricetin and spinacine (5) increases cellular levels of caspase 8 and p53. (a) SiHa cells (1 × 10^6 per well) were seeded into a six-well plate and allowed to incubate overnight. The indicated concentrations of myricetin and spinacine were added, and then cells were incubated for 24 h. Cells were then washed in 1 × PBS and then harvested, and the resulting level of caspase 8 was measured by immunoblot. (b) SiHa and C33A cells (1 × 10^6 per well) were seeded into a six-well plate and allowed to incubate overnight. In all, 200 μM of myricetin and 100 μM spinacine were added together with 4 μg/ml mitomycin C and incubated for 24 h. The resulting level of p53 was measured by enzyme-linked immunosorbent assay, and the level of p53 found in untreated cells was set at 100%. Experiments were performed in triplicate, and error bars indicate the S.D.
Cells (1 × 10^6) were collected and washed with PBS. All liquid was removed by centrifugation at 3000 r.p.m. for 5 min at 4 °C. […] Signals were measured using the Odyssey Infrared Imaging system (LI-COR Biosciences) and expressed in relative light units.

UM-SCC47-TC-Clone 3 = experiment: TRAIL-induced cell death in HPV+ HNSCC line UM-SCC47-TC-Clone 3 (MTT); details: HPV+ 47CL3, 40 μM compound 4 h, 50 ng/ml TRAIL + cycloheximide
Description: as §1, §2

Row | Structure (SMILES) | enhancement of TRAIL-induced cell death (UMSCC47) | sensitivity of SiHa cells to TRAIL (SiHa cells; 100 μM myricetin pretreatment 4 h, TRAIL up to 100 ng/ml + cycloheximide) | viability at 125 µM (SiHa cells) | EC50 (SiHa cells) | increase in cell death in the presence versus absence of TRAIL (SiHa cells) | enhancement of TRAIL-induced cell death (UPCI-SCC90-UP-Clone 35) | caspase 8 level (caspase 8; myricetin at 100 and 200 μM) | enhancement of TRAIL-induced cell death (UM-SCC47-TC-Clone 3) | caspase 8 level (caspase 8; spinacine at 50 to 200 μM)
1 | O=c1c(O)c(-c2cc(O)c(O)c(O)c2)oc2cc(O)cc(O)c12 [Myricetin, myricetin, reference compound] | 40% | increased dramatically | 30 to 40% | 155 µM | 3.5 fold | 30% | increase | 70% | –
2 | O=C(O)C1Cc2[nH]cnc2CN1 (stereo not drawn) [Spinacine (5), 4,5,6,7-tetrahydro-1H-imidazo[4,5–c]pyridine-6-carboxylic acid] | up to 50% | – | 30 to 40% | 31.3 µM | 8.6 fold | up to 50% | – | ~60% | increase
